According to patent US20060057636A1 (priority 2002, published 2006):

Tests used:
[1] = test system: Balb/C mice; conditions: in vivo, sc
[2] = test system: NMRI mice; conditions: mouse, in vivo
[3] = test system: recombinant bovine PrP; conditions: in vivo

Row | Sequence | mean end-point titre, mouse no. 1 [1] | mean end-point titre, mouse no. 2 [1] | mean end-point titre, mouse no. 3 [1] | mean end-point titre, mouse no. 4 [1] | titres in NMRI mice compared with Balb/C [2] | production of high-titered, PrP-reactive antibodies [3]
1 | CGGLGGYMLGSAMSRPLIH [PrP peptide 3] | 13.5000 | 13.500 | 13.500 | 40.500 | – | –
2 | CGGRESQAYYQRGAS [PrP peptide 4] | 4.500 | 13.500 | 13.500 | 40.500 | the same or even higher titres | –
3 | CGQGGTHGQWNKP [PrP peptide 1] | 40.500 | 40.500 | 40.500 | 40.500 | the same or even higher titres | –
4 | CGQWNKPSKPKTN [PrP peptide 2] | 121.500 | 40.500 | 13.500 | 13.500 | – | –
5 | CGSDYEDRY [PrP peptide 5] | 121.500 | 40.500 | 40.500 | 40.500 | – | all groups except the peptide 5 group
6 | CTQYQRESQAYYQRG [PrP peptide 7] | 121.500 | 13.4500 | 40.500 | 40.500 | – | –
7 | CYYRPVDQYS [PrP peptide 6] | 13.500 | 500 | 13.500 | 1.500 | the same or even higher titres | –
